Results reported in article PMC4309423, “Total synthesis of periploside A, a unique pregnane hexasaccharide with potent immunosuppressive effects” (Nature Communications, 2015).

Columns and labels:
[1] = Cytotoxicity assay (MTT) on fresh spleen cells; type: cell-based, mice; conditions: BALB/C, fresh spleen cells (T-lymphocytes); T-lymphocyte (mouse spleen cells), 48 h, MTT
Procedure: (§1) Supplementary Figure 62. Inhibition of the growth of T-lymphocytes by synthetic compounds 1, 31, and 41-43. […]
(§2) Bioassay for the immunosuppressive activities17
(§3) Preparation of spleen cells from mice
(§4) BALB/C mice were sacrificed and spleens were removed aseptically. A single cell suspension was prepared after cell debris and clumps were removed. Erythrocytes were lysed using ammonium chloride buffer solution. The isolated lymphocytes were washed 3 times with PBS containing 2% FBS, and were re-suspended in RPMI 1640 medium at the indicated concentration.
(§5) Fresh spleen cells ([…]) were cultured in 96-well flat plates with 200 µL of RPMI 1640 media containing 10% FBS, 100 U/mL penicillin and 100 µg/mL streptomycin in a humidified, 37 °C, 5% CO2-containing incubator for 48 h, in the presence or absence of various concentrations of the compounds. 18 µL of MTT (5 mg/mL) was added to each well at the final 5 h culture. Then 90 µ L of lysis buffer (10% SDS, 50% DMF, pH 7.2) was added to each well for 6–7 h and the absorbance values at 570 nm were read by microplate reader (Bio-Rad, Model 550). […]

[2] = system: ConA-induced T-lymphocyte proliferation (spleen cells from BALB/C mice); assay: T cell function assay: ConA-induced T-lymphocyte proliferation ([3H]-thymidine uptake); type: cell-based; conditions: for IC50: Mus musculus, ConA (5 μg/mL)-induced T-lymphocyte proliferation, 48 h, [3H]-thymidine uptake
Procedure: Supplementary Figure 63. Inhibition of concanavalin A (ConA)-induced
T-lymphocyte proliferation by synthetic compounds 1, 31, and 41-43.
as §2, §3
as §4, with “concentration. […]” for “concentration.”
1 x 10^6 of fresh spleen cells were cultured for 48 h at the same conditions as mentioned above. The cultures were stimulated with 5 µg/mL of concanavalin A (ConA) to induce T cells proliferative responses. The compounds were added to cultures with indicated concentrations to test their bioactivities. Proliferation was assessed in terms of uptake of [3H]-thymidine during last 8 h culture pulsing with 25 µCi of [3H]-thymidine for each well, and then cells were harvested onto glass fiber filters by a Basic 96 harvester. The incorporated radioactivity was counted by a liquid scintillation counter (1540 MicroBeta Trilux, Perkin–Elmer Life Sciences).

[3] = system: T-lymphocyte (spleen cells from BALB/C mice); assay: Cytotoxicity assay (MTT) on fresh spleen cells; type: cell-based; conditions: synthetic vs natural periploside A
Procedure: as §1, §2, §3, §4, §5

[4] = system: ConA-induced T cell proliferation; design: method as in PMID 18835000, PMID 21843896; conditions: natural product, cited from earlier work
[5] = system: T cell; design: method as in PMID 18835000, PMID 21843896; conditions: toxicity; natural product; cited from earlier work
[6] = system: mice models; design: method as in PMID 16204471, PMID 16751252; conditions: cited from earlier work

| SMILES | CC50 at 48 h [1] [nM] | IC50 [2] [nM] | toxicity against T-lymphocyte compared with the natural product [3] | activity against ConA-induced T-lymphocyte proliferation compared with the natural product ([2]; synthetic vs natural periploside A) | IC50 ([4]; ConA-induced T cell proliferation) [nM] | inhibition of ConA-induced T cell proliferation compared with reference drugs [4] | CC50 [5] [nM] | immunosuppressive effects in mice models [6] |
| --- | --- | --- | --- | --- | --- | --- | --- | --- |
| CO[C@H]1[C@@H](O)[C@@H](C)O[C@@H](O[C@H]2[C@@H](OC)C[C@H](O[C@H]3[C@@H](OC)C[C@H](O[C@H]4[C@@H](OC)C[C@H](O[C@@H]5[C@@H](C)O[C@]6(C[C@H]5OC)OCO[C@@H]5C[C@H](O[C@@H](C)[C@@]7(O)CCC8C9CC=C%10C[C@@H](O)CC[C@]%10(C)C9CC[C@@]87C)O[C@H](C)[C@H]5O6)O[C@@H]4C)O[C@@H]3C)O[C@@H]2C)[C@@H]1OC(C)=O (stereo partly drawn) [C1′′-epi-periploside A (31), C1′′-epi-periploside A] | 1580 ± 190 | 410 ± 150 | – | – | – | – | – | – |
| COC1CC(OC2C(C)OC3(CC2OC)OCOC2CC(OC(C)C4(O)CCC5C6CC=C7CC(O)CCC7(C)C6CCC54C)OC(C)C2O3)OC(C)C1OC1CC(OC)C(OC2CC(OC)C(OC3OC(C)C(O)C(OC)C3OC(C)=O)C(C)O2)C(C)O1 (stereo not shown) [Periploside A (1), Periploside A] | 2100 ± 320 | 170 ± 40 | similar | similar | 640 | as potently as rapamycin and cyclosporin A | 10100 | significant |
| CO[C@H]1[C@@H](O)[C@@H](C)O[C@@H](O[C@H]2[C@@H](OC)C[C@H](O[C@H]3[C@@H](OC)C[C@H](O[C@H]4[C@@H](OC)C[C@@H](O[C@@H]5[C@@H](C)O[C@@]6(C[C@H]5OC)OCO[C@@H]5C[C@H](O[C@@H](C)[C@@]7(O)CCC8C9CC=C%10C[C@@H](O)CC[C@]%10(C)C9CC[C@@]87C)O[C@H](C)[C@H]5O6)O[C@@H]4C)O[C@@H]3C)O[C@@H]2C)[C@@H]1OC(C)=O (stereo partly drawn) [C1′′′-epi-periploside A (41), C1′′′-epi-periploside A] | 11400 ± 3660 | 1960 ± 430 | – | – | – | – | – | – |
| CO[C@@H]1C[C@]2(OCO[C@@H]3C[C@H](O[C@@H](C)[C@@]4(O)CCC5C6CC=C7C[C@@H](O)CC[C@]7(C)C6CC[C@@]54C)O[C@H](C)[C@H]3O2)O[C@H](C)[C@H]1O (stereo partly shown) [Disaccharide 42] | 12800 ± 520 | 6200 ± 3200 | – | – | – | – | – | – |
| CO[C@@H]1C[C@]2(OCO[C@@H]3C[C@@H](O[C@@H](C)[C@@]4(O)CCC5C6CC=C7C[C@@H](O)CC[C@]7(C)C6CC[C@@]54C)O[C@H](C)[C@H]3O2)O[C@H](C)[C@H]1O (stereo partly shown) [Disaccharide 43] | 27700 ± 6610 | 3700 ± 2250 | – | – | – | – | – | – |
